The inhibition is the drop in the measured response relative to a control, in per cent.

Results on 6 compounds are retold here after patent US20110280940A1, “Di-Vanilloyl And Tri-Vanilloyl Derivatives For Use In Anti-Cancer Therapy” (priority 2008, published 2011).

Experiment [1] relates to Eleven human cancer cell lines. The experiment in a line: MTT colorimetric assay, across the eleven human cancer cell lines. Format: cell-based. In short, it runs like this: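 Seed cells in their own medium and incubate 24 h at 37 °C. Replace medium with compound-containing medium (10^-8 to 10^-4 M) and incubate 72 h.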
Background: Tetrazolium dyes change colour on reduction, which living cells bring about.

For another experiment, the system named is VM48 melanoma cells. Put plainly: MTT colorimetric assay, overall cell growth, VM48. It counts as cell-based, human. The note with it: Homo sapiens, read-out: In Vitro IC50 Growth Inhibitory Values, VM48.
The next experiment has as its target T1, Aurora A kinase (Homo sapiens, UniProt O14965).
T1 construct: made in house
T1 sequence (O14965 1-403): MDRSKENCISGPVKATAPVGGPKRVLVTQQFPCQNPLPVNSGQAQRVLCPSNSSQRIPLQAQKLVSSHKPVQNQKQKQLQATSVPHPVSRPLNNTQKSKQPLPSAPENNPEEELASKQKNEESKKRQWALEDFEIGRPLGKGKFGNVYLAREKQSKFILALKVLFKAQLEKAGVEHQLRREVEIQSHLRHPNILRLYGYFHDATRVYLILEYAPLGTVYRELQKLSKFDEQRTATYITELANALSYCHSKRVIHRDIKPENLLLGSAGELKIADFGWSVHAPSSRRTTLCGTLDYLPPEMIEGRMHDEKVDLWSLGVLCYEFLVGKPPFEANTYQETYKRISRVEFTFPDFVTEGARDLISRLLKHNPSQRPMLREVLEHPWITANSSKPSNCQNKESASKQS
The experiment in a line: Radiometric protein kinase assay (33 PanQinase), Aurora A. It counts as biochemical. The following applies: for IC50: dose-response 0-100 μM, n=3, read-out: IC50: Concentration of drug needed in order to inhibit kinase activity by 50%, AurA; for inhibition at 57 µM: read-out: inhibition of Aurora A activity. Here is the method:
Note that at a concentration of 20 μM of the DLT compounds, the activity of the three Aurora kinases is reduced by approximately 40-50%, whereas at concentrations of 50 μM, i.e. the concentration used in the anti-proliferation assays of example 2B, the activity of said kinases is reduced by 60-75%.
The kinase inhibition profile of DLT95-Cl at 20 μM was determined using 255 protein kinases. Residual activity values were measured by testing each compound at one concentration in duplicate in each kinase assay. A radiometric protein kinase assay (33 PanQinase®Activity Assay) was used for measuring the kinase activity of 250 protein kinases. All kinase assays were performed in 96-well flashPlates™ from Perkin Elmer (Boston, Mass., USA) in a 50 μl reaction volume. The reaction cocktail was pipetted in 4 steps in the following order: • 10 μl of non-radioactive ATP solution (in H2O) • 25 μl of assay buffer/[γ-33P]-ATP mixture • 5 μl of test sample in 10% DMSO • 10 μl of enzyme/substrate mixture
The assay for all enzymes contained 60 mM HEPES-NaOH, pH 7.5, 3 mM MgCl2, 3 mM MnCl2, 3 μM Na-orthovanadate, 1.2 mM DTT, 50 μg/ml PEG20000, 1 μM ATP/[γ-33P]-ATP (approx. […] per well), protein kinase, and substrate. All PKC assays (except the PKC-mu and the PKC-nu assay) additionally contained 1 mM CaCl2, 4 mM EDTA, 5 μg/ml Phosphatidylserine and 1 μg/ml 1,2-Dioleyl-glycerol. The MYLK2, CAMK1D, CAMK2A, CAMK2B, CAMK2D, CAMK4, CAMKK2, DAPK2 and EEF2K assays additionally contained 1 μg/ml Calmodulin and 0.5 mM CaCl2. The PRKG1 and PRKG2 assays additionally contained 1 μM cGMP.
The protein kinases were expressed either in Sf9 insect cells or in E. coli as recombinant GST-fusion proteins or as His-tagged proteins. All kinases were produced from human cDNAs. Kinases were purified by affinity chromatography using either GSH-agarose (Sigma) or Ni-NTH-agarose (Qiagen). The purity of the protein kinases was examined by SDS-PAGE/coomassie staining. The identity of the protein kinases was checked by mass spectroscopy.
The reaction cocktails were incubated at 30° C. for 60 minutes. The reaction was stopped with 50 μl of 2% (v/v) H3PO4, plates were aspirated and washed two times with 200 μl 0.9% (w/v) NaCl. All assays were performed with a BeckmanCoulter Biomek 2000/SL robotic system.
Incorporation of ^33Pi (counting of “cpm”) was determined with a microplate scintillation counter (Microbeta, Wallac).
For each kinase, the median value of the cpm of three wells with complete reaction cocktails, but without kinase, was defined as “low control” […]. This value reflects unspecific binding of radioactivity to the plate in the absence of protein kinase but in the presence of the substrate. Additionally, for each kinase the median value of the cpm of three other wells with the complete reaction cocktail, but without any compound, was taken as the “high control”, i.e. full activity in the absence of any inhibitor […]. The difference between high and low control of was taken as 100% activity for each kinase. As part of the data evaluation the low control value of each kinase was subtracted from the high control value as well as from their corresponding “compound values”. The residual activity (in %) for each compound well was calculated by using the following formula: Res. Activity (%)=100×[(cpm of compound−low control)/(high control−low control)]

Setting [2] is: mean ± SEM over the 11 human cancer cell lines, MTT, 72 hours, read-out: In Vitro IC50 Growth Inhibitory Values, m ± SEM.
[3] abbreviates: Homo sapiens, 72 h, read-out: In Vitro IC50 Growth Inhibitory Values, m ± SEM.

Read-outs that look alike come from different tables or passages of the source.

Regarding `COc1cc(C(=O)OCCOC(=O)c2ccc(O)c(OC)c2)ccc1O` [DLT1, Ethane-1,2-diyl bis-(4-hydroxy-3-methoxybenzoate)], the IC50 in experiment [1] (setting [2]) was determined as 53 µM; in the experiment with VM48 melanoma cells (MTT, 72 hours of incubation) it was 53 µM.

On to `COc1cc(C(=O)OCCCCCCOC(=O)c2ccc(O)c(OC)c2)ccc1O` [DLT11, Hexane-1,6-diyl bis-(4-hydroxy-3-methoxybenzoate)], for which the IC50 in experiment [1] (Homo sapiens, MTT colorimetric assay, read-out: IC50 growth inhibitory values, range depending on the cancer cell line analyzed) was 22 to 71 µM; in experiment [1] (setting [2]) it was 49 µM; in the experiment with VM48 melanoma cells (MTT, 72 hours of incubation), 56 µM.

For `COc1cc(C(=O)OCc2cc(COC(=O)c3ccc(O)c(OC)c3)cc(COC(=O)c3ccc(O)c(OC)c3)c2)ccc1O` [DLT95, [3,5-bis[(4-hydroxy-3-methoxy-benzoyl)oxymethyl]phenyl]methyl 4-hydroxy-3-methoxy-benzoate], the IC50 at Aurora A kinase was determined as 9.1 µM.

In the case of `O=C(OCc1cc(COC(=O)c2ccc(O)c(Cl)c2)cc(COC(=O)c2ccc(O)c(Cl)c2)c1)c1ccc(O)c(Cl)c1` [DLT95-Cl, [3,5-bis[(4-hydroxy-3-chloro-benzoyl)oxymethyl]phenyl]methyl 4-hydroxy-3-chloro-benzoate], the IC50 stood at 1.7 µM at Aurora A kinase, 29 ± 1 µM in experiment [1] (setting [3]) and 32 µM with VM48 melanoma cells (72 h). In addition, the inhibition at 57 µM on Aurora A kinase was at least 50%.

As to `O=C(OCc1cc(COC(=O)c2ccc(O)c(F)c2)cc(COC(=O)c2ccc(O)c(F)c2)c1)c1ccc(O)c(F)c1` [DLT95-F, [3,5-bis[(4-hydroxy-3-fluoro-benzoyl)oxymethyl]phenyl]methyl 4-hydroxy-3-fluoro-benzoate], the IC50 was 3.2 µM at Aurora A kinase, 33 ± 2 µM in experiment [1] (setting [3]) and 61 µM in the experiment on VM48 melanoma cells (72 h). On Aurora A kinase, the inhibition at 57 µM was at least 50%.

Turning to `COc1cc(C(=O)O)ccc1O` [vanillic acid, reference compound], the IC50 is above 100 µM on Aurora A kinase; above 1000 µM in experiment [1] (setting [2]); above 1000 µM with VM48 melanoma cells (MTT, 72 hours of incubation).
